# US6984657B1, “Indole derivatives as MCP-1 receptor antagonists” (AstraZeneca AB, priority 2000, dated 2006)
# How the values were obtained:
# [1] = system: THP-1 cells; assay: hMCP-1 mediated chemotaxis of THP-1 cells; format: cell-based, human; conditions: 2 h at 37° C.
# Method: In vitro chemotaxis assays were performed using the human monocytic cell line THP-1. Cell migration through polycarbonate membranes was measured by enumerating those passing through either directly by Coulter counting or indirectly by use of a colourimetric viability assay measuring the cleavage of a tetrazolium salt by the mitochondrial respiratory chain (Scudiero D. A. et al. 1988, Cancer Res., 48, 4827-4833). […]
# In an alternative form of the above assay, fluorescently tagged cells can be used in order to assist in end point detection. […] At the end of the incubation, cells are washed off the upper face of the filter with phosphate buffered saline, the filter removed from the plate and the number of cells attracted to either the underside of the filter or the lower well estimated by reading fluorescence at 485 nm excitation, 538 nm emission wavelengths (fmax, Molecular Devices). The data was input into a spreadsheet, corrected for any random migration in the absence of chemoattractant and the average fluorescence values, standard error of the mean, percentage inhibition and IC50 of compounds under test and significance tests can be calculated. […]
# [2] = target: T1, MCP-1 receptor B (CCR2B) (Homo sapiens, UniProt P41597); assay: hMCP-1 receptor binding assay (125I-MCP-1, CHO-CCR2B cell membranes); conditions: CHO-CCR2B membrane fragments
# T1 construct: expressed in transfected cells; host or cells: CHO-K1 clone 7 (CHO-CCR2B), membrane fragments
# T1 sequence (P41597 1-360 isoform P41597-2): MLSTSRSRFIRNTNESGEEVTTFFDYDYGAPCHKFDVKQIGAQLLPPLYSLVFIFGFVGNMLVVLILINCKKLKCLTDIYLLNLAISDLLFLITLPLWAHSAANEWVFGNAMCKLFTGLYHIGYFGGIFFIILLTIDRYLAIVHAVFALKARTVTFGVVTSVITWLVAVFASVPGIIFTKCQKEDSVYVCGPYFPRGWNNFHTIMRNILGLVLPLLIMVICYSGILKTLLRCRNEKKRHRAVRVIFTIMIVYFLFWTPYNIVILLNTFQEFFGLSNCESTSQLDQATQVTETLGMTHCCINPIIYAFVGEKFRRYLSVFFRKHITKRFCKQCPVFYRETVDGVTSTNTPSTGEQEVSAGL
# Text: The MCP-1 receptor B (CCR2B) cDNA was cloned by PCR from THP-1 cell RNA using suitable oligonucleotide primers based on the published MCP-1 receptor sequences (Charo et al., 1994, Proc. Natl. Acad. Sci. USA, 91, 2752). The resulting PCR products were cloned into vector PCR-II™ (In Vitrogen, San Diego, Calif.). Error free CCR2B cDNA was subcloned as a Hind III-Not I fragment into the eukaryotic expression vector pCNA3 (In Vitrogen) to generate pCDNA3/CC-CKR2A and pCDNA3/CCR2B respectively.
# Linearised pCDNA3/CCR2B DNA was transfected into CHO-K1 cells by calcium phosphate precipitation (Wigler et al., 1979, Cell, 16, 777). Transfected cells were selected by the addition of Geneticin Sulphate (G418, Gibco BRL) at 1 mg/ml, 24 hours after the cells had been transfected. Preparation of RNA and Northern blotting were carried out as described previously (Needham et al., 1995, Prot. Express. Purific., 6, 134). CHO-K1 clone 7 (CHO-CCR2B) was identified as the highest MCP-1 receptor B expresser.
# CHO-CCR2B cells were grown in DMEM supplemented with 10% foetal calf serum, 2 mM glutamine, 1× Non-Essential Amino Acids, 1× Hypoxanthine and Thymidine Supplement and Penicillin-Streptomycin (at 50 μg streptomycin/ml, Gibco BRL). Membrane fragments were prepared using cell lysis/differential centrifugation methods as described previously (Siciliano et al., 1990, J. Biol. Chem, 265, 19658). […]
# [3] = system: THP-1 cells; assay: MCP-1 mediated calcium flux in THP-1 cells; format: cell-based, human; conditions: stimulation of THP-1 cells with hMCP-1, FURA-2, approximate; read-out: EC50 of the rise in [Ca2+]i
# Method: The human monocytic cell line THP-1 was grown in a synthetic cell structure medium RPMI 1640 supplemented with 10% foetal calf serum, 6 mM glutamine and Penicillin-Streptomycin (at 50 μg streptomycin/ml, Gibco BRL). THP-1 cells were washed in HBSS (lacking Ca^2+ and Mg^2+)+1 mg/ml BSA and resuspended in the same buffer at a density of 3×10^6 cells/ml. The cells were then loaded with […] FURA-2/AM for 30 min at 37° C., washed twice in HBSS, and resuspended at 1×10^6 cells/ml. THP-1 cell suspension (0.9 ml) was added to a 5 ml disposable cuvette containing a magnetic stirrer bar and 2.1 ml of prewarmed (37° C.) HBSS containing 1 mg/ml BSA, 1 mM MgCl2 and 2 mM CaCl2. The cuvette was placed in a fluorescence spectrophotometer (Perkin Elmer, Norwalk, Conn.) and preincubated for 4 min at 37° C. with stirring. Fluorescence was recorded over 70 sec and cells were stimulated by addition of hMCP-1 to the cuvette after 10 sec. [Ca^2+]i was measured by excitation at 340 nm and 380 nm alternatively and subsequent measurement of the intensity of the fluorescence emission at 510 nm. […] Rmax is the maximal fluorescence ratio determined after addition of […] Ionomycin, Rmin is the minimal ratio determined by the subsequent addition of a Ca^2+ free solution containing 5 mM EGTA, and Sf2/Sb2 is the ratio of fluorescence value at 380 nm excitation determined at Rmin and Rmax, respectively. […]
substance,measurement,setting,value
"MCP-1: Human Monocyte Chemoattractant Protein-1, a C—C chemokine; ligand of the CCR2 receptor",concentration of maximal cell migration (biphasic response),[1],0.5-1.0 nm
same,IC50,[2]; cold competition of unlabeled MCP-1 with 100 pM 125I-labeled MCP-1,0.11 nM
same,Kd,"[2]; equilibrium binding, room temperature",0.12 nM
same,EC50,[3],~2 nM
